Reference: US20230144619A1, “SALT OF ARYLAMINOPURINE DERIVATIVE, PREPARATION METHOD THEREFOR AND USE THEREOF” (CSPC Zhongqi Pharmaceutical Technology (Shijiazhuang) Co., …, priority 2020, published 2023)
Counter-ions that a name gives are not always drawn.

Tested on: MV4-11 (FLT3-ITD mutation) subcutaneous tumor model
Assay: In-vivo anti-tumor test, MV4-11 subcutaneous tumor model
Set-up: species or system nude mice
Conditions: MV4-11 model, once daily oral administration for 21 days
Protocol: The salt sample obtained from Example 1 was tested (specifically for FLT3-ITD acute myeloid leukemia, non-small cell lung cancer with EGFR activating mutations, or Ph-positive chronic myeloid leukemia) according to the in-vivo anti-tumor test described in the biological assessment of the patent application WO2011/147066.

`CC(C)n1c(Nc2cccnc2)nc2cnc(Nc3ccc(N4CCN(C)CC4)cc3)nc21` [Example 1, arylaminopurine derivative.trihydrochloride.pentahydrate] was tested, and the tumor growth (5 mg/kg) was “completely inhibit the tumor growth”, the tumor growth (10 mg/kg) was “complete regression of the tumor” and the tumor growth (20 mg/kg) was “complete regression of the tumor”.
